Assay: free release of ethanol from loaded hydrophobic zeolite over time, with parallel evaporation of non-adsorbed ethanol
Assay type: physicochemical
Conditions: one gram ethanol not adsorbed to any hydrophobic zeolite, reduced to 0,5 grams
Procedure: After 12 hours, at 29 degrees C., hydrophobic zeolite Y powder has dropped approximately 70% of its ethanol.
Hydrophobic zeolite Y was loaded with 16 weight per cent ethanol and its free release of ethanol over the time at a surrounding temperature off 29 degrees C. was studied. The result appears in FIG. 1. Which also appears from FIG. 1, the hydrophobic zeolite had, after approximately 5 hours, given the half amount of its ethanol, and was still active.
In a parallel experiment evaporation of 95% ethanol, not adsorbed to any hydrophobic zeolite, was measured. One gram of this ethanol had after 8 minutes been reduced through evaporation to 0,5 grams, i e to half the amount. This is a drastic difference compared with ethanol which is adsorbed to hydrophobic zeolite. If the experiment had been executed with 99.5% ethanol instead of 95% it would presumably have been even smaller. Through the hydrophobic zeolite composition the skin is exposed to ethanol vapour during 50 times's longer time as in a normal sponging.
The mentioned hydrophobic zeolite loaded with ethanol gives a vapour that is near 100% ethanol in composition. The ethanol vapour can aggressively attack skin bacteria's in their hydrophobic environment during relatively long time.

Question: With `CCO` [95% ethanol, ethanol] as the molecule, how does the “time until reduced through evaporation to half the amount” value read?
Answer: The value was 8 min.

Source: patent publication US20080247979A1, “Use of a Hydrophobic Zeolite, that Contains and Gives a Slow Release of an Active Element, for Treatment of Skin” (priority 2005, published 2008)
